# Patent publication US11872230B2, “Method of treating a methionine-dependent cancer” (Agency for Science, Technology and Research, priority 2018, dated 2024)
# Experiments:
# [1] = tested on: non-neoplastic cell lines; experiment: Proliferation of non-neoplastic (untransformed) cell lines in FIDAS5-containing media; type: cell-based
# Protocol: (§1) Cells were seeded into 96-well plates at a density of 2,000 cells/well for TS cells and 500 cells/well for Adh cells. The relative number of viable cells was determined by the quantification of ATP using the CellTiter-Glo Luminescent Cell Viability Assay (Promega) system.
# [2] = tested on: cancer cell lines with high or low MAT2A expression; experiment: Proliferation of cancer cell lines grown in FIDAS5 containing medium; type: cell-based; conditions: 10 uM
# Protocol: as §1
# [3] = tested on: histone methylation in NIH 3T3 cells; experiment: Western blot of methylated histones in NIH 3T3 cells; type: cell-based; conditions: FIDAS5 treatment
# Protocol: 1.5×10^6 cells were lysed in Llaemli-SDS buffer and then sonicated. Total protein concentration was measured by Bradford assay. Total cell lysates were separated by SDS-PAGE and transferred onto nitrocellulose, followed by blocking in 5% (v/v) milk in Tris-buffered saline in Tween 20, probing with the indicated antibodies and visualized by chemiluminescence (Roche). Primary antibodies used were anti-β-Actin (sc-47778), anti-GAPDH (sc-32233) from Santa Cruz: anti-GLDC (ab97625), anti-H3 (ab1791), anti-H3 (dimethylK36) (ab9049), anti-MAT2A (ab77471), anti-MTR (ab9209), anti-H3 (trimethylK79) (ab2621), anti-MTHFR (ab125707), anti-MTAP (ab ab55517) from Abcam; anti-H3(trimethyl K4) (39159), anti-H3(trimethyl K27)(39155), anti-H3(trimethylK36)(61101) and anti-H3(trimethylK9)(39765) from Active Motif; anti-β-catenin (BD610154) from BD Biosciences; anti-SHMT2 (HPA020549) and anti-SAHH (WH0000191M8) from Sigma; anti-Symmetric Di-Methyl Arginine Motif (13222) from CST.
# TS cells (lung TICs) = experiment: Soft agar colony formation of pre-treated TS cells; type: cell-based, human; conditions: TS cells treated 48 h with inhibitor prior to soft agar assay
# Protocol: 2.5 ml lower layer of 0.7% agar in complete DMEM/F12 with 10% fetal bovine serum was placed in 3 wells of a 6 well dish, and permitted to solidify. 2×10^4 Cells (for 3 wells) were then suspended in a 2 ml layer of 0.35% agar in complete DMEM/F12 with 10% fetal bovine serum and layered on top of the bottom layer. Colonies were stained with crystal violet and counted after approximately 2 months.
# To evaluate the methionine cycle as a therapeutic target in lung TICs, small molecule inhibitors that target enzymes within this pathway were employed, mimicking the effects of short-term methionine starvation (FIG. 5a). two inhibitors known to perturb methionine cycle activity and cellular methylation levels: 1) MAT2A inhibitor, FIDAS5; and 2) SAHH inhibitor, D9, which is an analog of DZNep. In a manner similar to amino acid starvation studies, TS cells were exposed transiently to the compounds for 48 h in culture and were immediately used for downstream tumorigenesis assays.
# [4] = tested on: methionine cycle metabolites in TS cells; experiment: LC/MS abundance of methionine cycle metabolites 48 h after inhibitor treatment; type: cell-based, human; conditions: 48 h FIDAS5 (10 μM), normalized to DMSO
# Protocol: Cis-platinum (cis-Diammineplatinum(II) dichloride) and MG132 (10 μM final concentration) was purchased from Sigma, FIDAS-5 (final concentration of 10 μM in culture medium) from Merck Millipore and D9 (final concentration of 500 nM in culture medium).
# For suspension cell culture, 10 million cells per sample were obtained and quenched with 4 volumes of ice-cold 150 mM sodium chloride solution. The cell pellets were collected by centrifugation of the quenched samples at 3000 g for 5 min at 4° C. and the supernatant was aspirated and discarded. For adherent cell culture, the media was gently aspirated and the cells on the surfaces of the well plates were gently washed with ice-cold 150 mM sodium chloride solution thrice. Ice-cold sodium chloride was added to the plate and a cell scraper was used to release adherent cells from the plate surface. The cell pellets were collected as described earlier and kept on ice. […]
# For targeted LC/MS analysis, the chromatographic peak integration was performed using Targetlynx software (Waters Corp). In addition, for the ^13C-labeled methionine pulse-chase experiments, the atomic percent excess (APE) for each species was calculated and natural abundance corrected from an isotopomer matrix accounting for the presence of natural abundance carbons distributed throughout each possible parent/daughter ion combination (Table 3). […]
compound,measurement,setting,value
CNc1ccc(/C=C/c2c(F)cccc2Cl)cc1 [FIDAS5],proliferation in FIDAS5-containing media,[1],far less affected
same,growth upon FIDAS5 treatment,[2]; cancer cell lines expressing high MAT2A,dramatically hampered in their growth
same,growth upon FIDAS5 treatment,[2]; cancer cell lines expressing low MAT2A,largely insensitive
same,histone methylation marks,[3],did not demonstrate reduction in histone methylation marks
same,colony-forming ability,TS cells (lung TICs),severely diminished
same,reduction of intracellular levels of SAH,[4],~10 fold
same,reduction of intracellular levels of SAM,[4],~10 fold
